pIC50: −log10 of the molar value.
System: Tunicamycin induced ISR (ATF4 signal ratio between nucleus and cytoplasm) in wild-type HEK293 cells
Test: HEK-ATF4 High Content Imaging assay
Assay type: cell-based
Conditions: Homo sapiens, prevention of Tunicamycin induced ISR, 6 h incubation, ATF4 immunofluorescence nucleus/cytoplasm ratio
Method: HEK-ATF4 High Content Imaging Assay
Example compounds were tested in the HEK-ATF4 High Content Imaging assay to assess their pharmacological potency to prevent Tunicamycin induced ISR. Wild-type HEK293 cells were plated in 384-well imaging assay plates at a density of 12,000 cells per well in growth medium (containing DMEM/F12, 10% FBS, 2 mM L-Glutamine, 100 U/mL Penicillin—100 μg/mL Streptomycin) and incubated at 37° C., 5% CO2. 24 h later, the medium was changed to 50 μL assay medium per well (DMEM/F12, 0.3% FBS, 2 mM L-Glutamine, 100 U/mL Penicillin—100 μg/mL Streptomycin). Example compounds were serially diluted in DMSO, spotted into intermediate plates and prediluted with assay medium containing 3.3 μM Tunicamycin to give an 11-fold excess of final assay concentration. In addition to the example compound testing area, the plates also contained multiples of control wells for assay normalization purposes, wells containing Tunicamycin but no example compounds (High control), as well as wells containing neither example compound nor Tunicamycin (Low control). The assay was started by transferring 5 μL from the intermediate plate into the assay plates, followed by incubation for 6 h at 37° C., 5% CO2. Subsequently, cells were fixed (4% PFA in PBS, 20 min at r.t.) and submitted to indirect ATF4 immunofluorescence staining (primary antibody rabbit anti ATF4, clone D4B8, Cell Signaling Technologies; secondary antibody Alexa Fluor 488 goat anti-rabbit IgG (H+L), Thermofisher Scientific). Nuclei were stained using Hoechst dye (Thermofisher Scientific), and plates were imaged on an Opera Phenix High Content imaging platform equipped with 405 nm and 488 nm excitation. Finally, images were analyzed using script based algorithms. The main readout HEK-ATF4 monitored the ATF4 signal ratio between nucleus and cytoplasm. Tunicamycin induced an increase in the overall ATF4 ratio signal, which was prevented by ISR modulating example compounds. In addition, HEK-CellCount readout was derived from counting the number of stained nuclei corresponding to healthy cells. This readout served as an internal toxicity control.

| SMILES | pIC50 |
| --- | --- |
| O=C(N[C@H]1CC[C@H](c2nnc(OCCOC(F)(F)F)o2)NC1)c1ccc(OC(F)(F)F)c(Cl)c1 [Example 34, 3-chloro-4-(trifluoromethoxy)-N-[(3S,6R)-6-{5-[2-(trifluoromethoxy)ethoxy]-1,3,4-oxadiazol-2-yl}piperidin-3-yl]benzamide] | 5.70 to 6.30 |
| O=C(N[C@H]1CC[C@H](c2nnc(OCCOC(F)(F)F)o2)NC1)c1ccc2nc(C(F)(F)F)ccc2c1 [Example 14, N-[(3S,6R)-6-{5-[2-(trifluoromethoxy)ethoxy]-1,3,4-oxadiazol-2-yl}piperidin-3-yl]-2-(trifluoromethyl)quinoline-6-carboxamide] | 4.82 to 5.70 |
| O=C(N[C@H]1CC[C@H](c2nnc(OCCOC(F)(F)F)o2)NC1)c1cnc2c(F)c(Cl)ccc2c1 [Example 19, 7-chloro-8-fluoro-N-[(3S,6R)-6-{5-[2-(trifluoromethoxy)ethoxy]-1,3,4-oxadiazol-2-yl}piperidin-3-yl]quinoline-3-carboxamide] | 6.30 to 9.00 |
| O=C(N[C@H]1CC[C@H](c2nnc(OCCOC(F)(F)F)o2)NC1)c1cn2cc(Cl)cc2cn1 [Example 15, 7-chloro-N-[(3S,6R)-6-{5-[2-(trifluoromethoxy)ethoxy]-1,3,4-oxadiazol-2-yl}piperidin-3-yl]pyrrolo[1,2-a]pyrazine-3-carboxamide] | 4.82 to 5.70 |
| O=C(N[C@H]1CC[C@H](c2nnc(OCCOC(F)(F)F)o2)NC1)c1cc2ccc(Cl)cn2c1 [Example 21, 6-chloro-N-[(3S,6R)-6-{5-[2-(trifluoromethoxy)ethoxy]-1,3,4-oxadiazol-2-yl}piperidin-3-yl]indolizine-2-carboxamide] | 6.30 to 9.00 |
| O=C(N[C@H]1CC[C@H](c2nnc(OCCOC(F)(F)F)o2)NC1)c1cnc2cc(Cl)ccc2c1 [Example 3, 7-chloro-N-[(3S,6R)-6-{5-[2-(trifluoromethoxy)ethoxy]-1,3,4-oxadiazol-2-yl}piperidin-3-yl]quinoline-3-carboxamide] | 6.30 to 9.00 |
| O=C(N[C@H]1CC[C@H](c2nnc(OCCOC(F)(F)F)o2)NC1)c1cnc2cc(Cl)c(F)cc2c1 [Example 11, 7-chloro-6-fluoro-N-[(3S,6R)-6-{5-[2-(trifluoromethoxy)ethoxy]-1,3,4-oxadiazol-2-yl}piperidin-3-yl]quinoline-3-carboxamide] | 6.30 to 9.00 |
| O=C(N[C@H]1CC[C@H](c2nnc(OCCOC(F)(F)F)o2)NC1)c1ccc(OC(F)(F)F)nc1 [Example 16, 6-(trifluoromethoxy)-N-[(3S,6R)-6-{5-[2-(trifluoromethoxy)ethoxy]-1,3,4-oxadiazol-2-yl}piperidin-3-yl]pyridine-3-carboxamide] | 5.70 to 6.30 |
| O=C(N[C@H]1CC[C@H](c2nnc(OCCOC(F)(F)F)o2)NC1)c1cnc2ccc(Cl)cc2c1 [Example 8, 6-chloro-N-[(3S,6R)-6-{5-[2-(trifluoromethoxy)ethoxy]-1,3,4-oxadiazol-2-yl}piperidin-3-yl]quinoline-3-carboxamide] | 6.30 to 9.00 |
| O=C(N[C@H]1CC[C@H](c2nnc(OCCOC(F)(F)F)o2)NC1)c1ccc(F)c(C(F)(F)F)c1 [Example 35, 4-fluoro-N-[(3S,6R)-6-{5-[2-(trifluoromethoxy)ethoxy]-1,3,4-oxadiazol-2-yl}piperidin-3-yl]-3-(trifluoromethyl)benzamide] | 4.82 to 5.70 |
| Cc1ccc(C(=O)N[C@H]2CC[C@H](c3nnc(OCCOC(F)(F)F)o3)NC2)cc1 [Example 27, 4-methyl-N-[(3S,6R)-6-{5-[2-(trifluoromethoxy)ethoxy]-1,3,4-oxadiazol-2-yl}piperidin-3-yl]benzamide] | 4.82 to 5.70 |
| O=C(N[C@H]1CC[C@H](c2nnc(OCCOC(F)(F)F)o2)NC1)c1cc(F)c(Cl)c(F)c1 [Example 32, 4-chloro-3,5-difluoro-N-[(3S,6R)-6-{5-[2-(trifluoromethoxy)ethoxy]-1,3,4-oxadiazol-2-yl}piperidin-3-yl]benzamide] | 4.82 to 5.70 |
| Cn1c(C(=O)N[C@H]2CC[C@H](c3nnc(OCCOC(F)(F)F)o3)NC2)cc2ccc(C(F)(F)F)cc21 [Example 42, 1-methyl-N-[(3S,6R)-6-[5-[2-(trifluoromethoxy)ethoxy]-1,3,4-oxadiazol-2-yl]-3-piperidyl]-6-(trifluoromethyl)indole-2-carboxamide] | 5.70 to 6.30 |
| O=C(N[C@@H]1CC[C@@H](c2nnc(OCCOC(F)(F)F)o2)NC1)c1cnc2cc(Cl)ccc2c1 [Example 49, 7-chloro-N-[(3R,6S)-6-[5-[2-(trifluoromethoxy)ethoxy]-1,3,4-oxadiazol-2-yl]-3-piperidyl]quinoline-3-carboxamide] | 6.30 to 9.00 |
| O=C(N[C@H]1CO[C@H](c2nnc(OCCOC(F)(F)F)o2)OC1)c1cnc2cc(Cl)ccc2c1 [Example 55, 7-chloro-N-[trans-2-{5-[2-(trifluoromethoxy)ethoxy]-1,3,4-oxadiazol-2-yl}-1,3-dioxan-5-yl]quinoline-3-carboxamide] | 6.30 to 9.00 |
| O=C(N[C@H]1CC[C@H](c2nnc(OCCOC(F)(F)F)o2)NC1)c1cc(Cl)c(Cl)cn1 [Example 38, 4,5-dichloro-N-[(3S,6R)-6-{5-[2-(trifluoromethoxy)ethoxy]-1,3,4-oxadiazol-2-yl}piperidin-3-yl]pyridine-2-carboxamide] | 4.82 to 5.70 |
| Cc1cc(C(=O)N[C@H]2CC[C@H](c3nnc(OCCOC(F)(F)F)o3)NC2)sc1C [Example 26, 4,5-dimethyl-N-[(3S,6R)-6-{5-[2-(trifluoromethoxy)ethoxy]-1,3,4-oxadiazol-2-yl}piperidin-3-yl]thiophene-2-carboxamide] | 4.82 to 5.70 |
| Cc1cc(C)cc(C(=O)N[C@H]2CC[C@H](c3nnc(OCCOC(F)(F)F)o3)NC2)c1 [Example 24, 3,5-dimethyl-N-[(3S,6R)-6-{5-[2-(trifluoromethoxy)ethoxy]-1,3,4-oxadiazol-2-yl}piperidin-3-yl]benzamide] | 4.82 to 5.70 |
